Source: the supplement of paper PMC13380429

Assays:
Conditions in all cases: 72 h
Caco-2 [1] = assay: drug sensitivity score (DSS) for viability; higher = more toxic; extreme values may be limits of the assay
Vero E6 [2] = assay: as above
Calu-3 [3] = assay: as above
U2OS [4] = assay: as above
HepG2 [5] = assay: as above
Caco-2 [6] = assay: relative viability EC50 (midpoint between 100% and the lowest measured viability); higher = less toxic
Vero E6 [7] = assay: as above
Calu-3 [8] = assay: as above
U2OS [9] = assay: as above
HepG2 [10] = assay: as above
Caco-2 [11] = assay: cell viability relative to DMSO; higher = less toxic
Vero E6 [12] = assay: as above
Calu-3 [13] = assay: as above
U2OS [14] = assay: as above
HepG2 [15] = assay: as above

Structure (SMILES)	drug sensitivity score (Caco-2 [1])	drug sensitivity score (Vero E6 [2])	drug sensitivity score (Calu-3 [3])	drug sensitivity score (U2OS [4])	drug sensitivity score (HepG2 [5])	relative viability EC50 (Caco-2 [6]) [µM]	relative viability EC50 (Vero E6 [7]) [µM]	relative viability EC50 (Calu-3 [8]) [µM]	relative viability EC50 (U2OS [9]) [µM]	relative viability EC50 (HepG2 [10]) [µM]	cell viability (Caco-2 [11]; 1 nM) [%]	cell viability (Caco-2 [11]; 10 nM) [%]	cell viability (Caco-2 [11]; 100 nM) [%]	cell viability (Caco-2 [11]; 1000 nM) [%]	cell viability (Caco-2 [11]; 10000 nM) [%]	cell viability (Vero E6 [12]; 1 nM) [%]	cell viability (Vero E6 [12]; 10 nM) [%]	cell viability (Vero E6 [12]; 100 nM) [%]	cell viability (Vero E6 [12]; 1000 nM) [%]	cell viability (Vero E6 [12]; 10000 nM) [%]	cell viability (Calu-3 [13]; 1 nM) [%]	cell viability (Calu-3 [13]; 10 nM) [%]	cell viability (Calu-3 [13]; 100 nM) [%]	cell viability (Calu-3 [13]; 1000 nM) [%]	cell viability (Calu-3 [13]; 10000 nM) [%]	cell viability (U2OS [14]; 1 nM) [%]	cell viability (U2OS [14]; 10 nM) [%]	cell viability (U2OS [14]; 100 nM) [%]	cell viability (U2OS [14]; 1000 nM) [%]	cell viability (U2OS [14]; 10000 nM) [%]	cell viability (HepG2 [15]; 1 nM) [%]	cell viability (HepG2 [15]; 10 nM) [%]	cell viability (HepG2 [15]; 100 nM) [%]	cell viability (HepG2 [15]; 1000 nM) [%]	cell viability (HepG2 [15]; 10000 nM) [%]
CC1(C)S[C@@H]2[C@H](NC(=O)[C@H](NC(=O)N3CCNC3=O)c3ccccc3)C(=O)N2[C@H]1C(=O)O [azlocillin]	0	0	0	0	0	> 10	> 10	> 10	> 10	> 10	105	93	91.3	98.8	98.1	95.7	96.8	96.9	94.2	98	97.1	100	93	98.7	105	96.6	100	93.6	95	98.6	99.1	88.5	99.3	93.9	88
CC1=CC(=C(c2ccc(N)cc2)c2ccc(N)cc2)C=CC1=N [basic-fuchsin]	7.9	6.6	6.6	7.1	7.9	1.47	1.54	1.93	1.96	1.81	88.8	92.4	106	77.6	18.6	97.2	91	94.8	82.3	29.8	92.3	102	103	87.1	19.5	97.8	97.9	95.2	86.5	12.8	102	97	104	83	7.8
O=C(c1ccc(CN2CCOCC2)cc1)N1CCN(C2CC2)CC1 [bavisant]	0	0	0.5	0	0	> 10	> 10	> 10	> 10	> 10	104	102	97.7	89.6	98.9	109	104	104	104	99.6	86.9	95	87.1	88.9	89.2	102	97.6	103	101	99.8	108	104	90.6	107	94.4
O=C(Nc1ccc(C(=O)O)c(O)c1)c1ccccc1 [benzoylpas]	0	0	0	0	0	> 10	> 10	> 10	> 10	> 10	93	97.5	91.9	97.5	92	99.8	96.8	105	97.4	103	94.1	106	97.9	90.3	91.1	100	102	92.8	95.9	101	93.5	97	97.7	98.6	107
CC(C)(C)CC(C)(C)c1cc(Cc2cc(C(C)(C)CC(C)(C)C)cc(-n3nc4ccccc4n3)c2O)c(O)c(-n2nc3ccccc3n2)c1 [bisoctrizole]	0.1	0	0	0	0	> 10	> 10	> 10	> 10	> 10	98.6	99.3	97.1	98.9	87.7	103	101	96.5	98.1	101	88.8	99	90.8	105	103	96.8	99.7	95.5	99.5	94.4	98.6	108	97.5	98.6	105
